Like-named read-outs stand apart in the source and are kept apart here.

In the assay the test system is PAE 27853. The assay is classed as cell-based, P. aeruginosa. Conditions: tntbc: Too numerous to be counted. The protocol: Method 4: Determination of the Spontaneous Mutation Frequency of the Compounds Alone and Combined with Antibiotics.
Bacterial isolates (Table 3) were grown overnight at 35° C. on TSA plates (Becton-Dickinson and Company) in ambient air. After 24 h of incubation, isolated bacterial colonies were added to cation-adjusted Mueller-Hinton broth (ca-MHB; Becton-Dickinson and Company) and cultured for approximately 6 h at 35° C. The pre-culture was stopped once bacteria have reached an OD600 nm of 0.5 for 200 μL. The bacterial suspension was centrifuged at 4000 rpm for 20 min. The supernatant was then discarded and the bacterial pellet was dissolved in ca-MHB to obtain 10^9 to 10^10 CFU/mL. Assays including Fosfomycin were supplemented with 25 μg/ml of Glucose-6-phosphate. 100 μL of the adjusted bacterial suspension were spread on agar plates containing different concentrations of the compounds of the present invention alone or combined with an antibacterial (Table 1). The plates were incubated for 24-48 h at 35° C. in ambient air. CFU were numerated on each agar plate containing compound. The number of resistant colonies obtained was divided by the starting inoculum to give the frequency of spontaneous resistance for a given incubation time (24 and 48 h).

Take `O=C(O)c1cn(C2CC2)c2cc(N3CCNCC3)c(F)cc2c1=O` [CIP, Ciprofloxacin]: the “Frequency of spontaneous resistance” value is on record as 5.1E−08 (single agent at 4.MIC) and 4.0E−09 (single agent at 8.MIC).

(Values after patent US20200024278A1, “COMPOSITION COMPRISING ANTIBIOTIC COMPOUND AND AN HETEROCYCLIC COMPOUND AND THEIR USE IN PREVENTING OR TREATING BACTERIAL INFECTIONS” (MUTABILIS, priority 2016, published 2020).)
